# Assay: Solubility in di(tridecyl) adipate ester base stock (Esterex A51)
# Assay type: physicochemical
# Conditions: Group V ester base stock
# Text: The ionic liquids of Examples 5, 7, 9, 11 and 13 have good viscosity index.
row,SMILES,solubility in di(tridecyl) adipate ester base stocks
1,"CCCCCCCCCCn1cc[n+](C)c1 [Example 5, 1-methyl-3-decylimidazolium bis(trifluoromethanesulfonyl)imide]",highly soluble
2,"CCCCCCCCCCCCCCCCn1cc[n+](C)c1 [Example 7, 1-methyl-3-hexadecylimidazolium bis(trifluoromethanesulfonyl)imide]",highly soluble
3,"CCCCCCCCCC[n+]1ccn(CCCC)c1 [Example 9, 1-butyl-3-decylimidazolium bis(trifluoromethanesulfonyl)imide]",highly soluble
4,"CCCCCCCCCCCCCCCC[n+]1ccn(CCCC)c1 [Example 11, 1-butyl-3-hexadecylimidazolium bis(trifluoromethanesulfonyl)imide]",highly soluble
5,"CCCCCCCCCC[n+]1ccn(Cc2ccccc2)c1 [Example 13, 1-benzyl-3-decylimidazolium bis(trifluoromethanesulfonyl)imide]",highly soluble

# Reference: patent US20150045266A1, “IONIC LIQUID AS LUBRICATING OIL BASE STOCKS, COBASE STOCKS AND MULTIFUNCTIONAL FUNCTIONAL FLUIDS” (ExxonMobil Research and Engineering Company, priority 2012, published 2015)
